Literature values as cited in patent US20230181442A1, “METHOD FOR DYEING KERATIN MATERIAL, COMPRISING THE USE OF AN ORGANOSILICON COMPOUND, HYALURONIC ACID (SALT), A DYEING COMPOUND AND A POST-TREATMENT AGENT” (Henkel AG & Co. KGaA, priority 2020, published 2023).

Settings: for solubility in water: 25° C.

SMILES	solubility in water (in words) (water at 25° C.)	solubility in water
O=C(O)C1=NN(c2ccc(S(=O)(=O)O)cc2)C(=O)C1N=Nc1ccc(S(=O)(=O)O)cc1 (stereo not shown) [Acid Yellow 23, 4,5-dihydro-5-oxo-1-(4-sulfophenyl)-4-((4-sulfophenyl)azo)-1H-pyrazole-3-carboxylic acid]	highly soluble	
CCN(Cc1cccc(S(=O)(=O)O)c1)c1ccc(C(=C2C=CC(=[N+](CC)Cc3cccc(S(=O)(=O)O)c3)C=C2)c2ccccc2S(=O)(=O)[O-])cc1 [Acid Blue 9]		more than 20 wt. %
O=S(=O)(O)c1ccc(N=Nc2c(O)ccc3ccccc23)cc1 [Acid Orange 7, 4-[(2-hydroxy-1-naphthyl)azo]benzene sulfonate]		more than 7 g/L
O=[N+]([O-])c1cc([N+](=O)[O-])c2ccc(S(=O)(=O)O)cc2c1O [Acid Yellow 9, 8-hydroxy-5,7-dinitro-2-naphthalenesulfonic acid]		above 40 g/L
